Source: US11160790B2, “Method of inhibiting Cryptococcus growth using eltrombopag” (priority 2019, dated 2021)

Assays:
C. neoformans H99 [1] = assay: Checkerboard titration assay; assay type: cell-based, Cryptococcus neoformans; details: 30° C., 48 hours
Protocol: (§1) Amphotericin B plus 5-flucytosine or fluconazole are combinations often used to treat cryptococcal meningitis. To investigate the synergy between eltrombopag and existing antifungal drugs or other drugs, a checkerboard titration assay was performed on Cryptococcus. Briefly, C. neoformans […] and C. deuterogattii […] cells were cultured overnight at 30° C. and then washed twice with double-distilled water. The cells were diluted to 10^3 cfu/mL with RPMI 1640 medium, and 100 μL of the cell suspension was added to each well of a 96-well polystyrene plate. […] After incubation at 30° C. for 48 hours, the growth of cells under different treatments was assessed by measuring the light absorbance at 600 nm (OD600). This assay allows the determination of fractional inhibitory concentration index (FICI): (MICcombined of drug A/MICalone of drug A)+(MICcombined of drug B/MICalone of drug B). After the checkerboard titration assay, the cells (3 μL) in the 96-well plate were transferred to drug-free YPD agar plates. After incubation at 30° C. for 48 hours, the agar plates were photographed and assessed for cell viability.

C. deuterogattii R265 = assay: Checkerboard titration assay; assay type: cell-based, Cryptococcus deuterogattii; details: 30° C., 48 hours
Protocol: as §1

C. neoformans H99 [2] = assay: XTT-reduction assay of biofilm metabolic activity; assay type: cell-based, Cryptococcus neoformans; details: at respective MICs (1 mg/L amphotericin B, 4 mg/L fluconazole), 24 hours
Protocol: Cryptococcus biofilms, which are composed of Cryptococcus cells and extracellular matrix, enhance the tolerance of Cryptococcus to antifungal agents (such as amphotericin B) and host defense mechanisms. To assess whether eltrombopag impacts biofilm formation in Cryptococcus, an XTT-reduction assay was used to measure the metabolic activity of C. neoformans cells treated with eltrombopag at 37° C. Briefly, C. neoformans […] cells were cultured in YPD medium at 30° C. overnight. The cells were washed twice with phosphate buffered saline (PBS) and resuspended in RPMI 1640 medium with or without eltrombopag at the indicated concentrations. The cell suspension (0.0005 OD600/mL) was added to a 96-well polystyrene plate and incubated at 37° C. for 24 or 48 hours. […] After incubation, the cells were washed three times with PBS and subjected to XTT reduction assay to quantify formazan formation by measuring the light absorbance at 492 nm. The experiments were performed in triplicate, and the results were presented as mean±standard deviation. Statistical significance for the data sets was determined using a two-tailed t test.

| MICalone (C. neoformans H99 [1]) | MICcombined of AMB (C. neoformans H99 [1]; AMB in combination with ETP) | MICalone (C. deuterogattii R265) | MICcombined of AMB (C. deuterogattii R265; AMB in combination with ETP) | MICcombined of FK506 (C. neoformans H99 [1]; FK506 in combination with ETP) | MICcombined of FK506 (C. deuterogattii R265; FK506 in combination with ETP) | MICcombined of FLC (C. neoformans H99 [1]; FLC in combination with ETP) | MICcombined of FLC (C. deuterogattii R265; FLC in combination with ETP) | SMILES | reducing the metabolic activity of C. neoformans biofilms, compared with eltrombopag (C. neoformans H99 [2]) |
| --- | --- | --- | --- | --- | --- | --- | --- | --- | --- |
| 1 mg/L | 0.5 mg/L | 1 mg/L | 1 mg/L |  |  |  |  | C[C@@H]1[C@H](O)[C@@H](C)/C=C/C=C/C=C/C=C/C=C/C=C/C=C/[C@H](O[C@@H]2O[C@H](C)[C@@H](O)[C@H](N)[C@@H]2O)C[C@@H]2O[C@](O)(C[C@@H](O)C[C@@H](O)[C@H](O)CC[C@@H](O)C[C@@H](O)CC(=O)O[C@H]1C)C[C@H](O)[C@H]2C(=O)O [AMB, amphotericin B] | less effective than eltrombopag |
| >16 mg/L |  | >16 mg/L |  | 0.25 mg/L | 0.25 mg/L |  |  | C=CC[C@@H]1/C=C(\C)C[C@H](C)C[C@H](OC)[C@H]2O[C@@](O)(C(=O)C(=O)N3CCCC[C@H]3C(=O)O[C@H](/C(C)=C/[C@@H]3CC[C@@H](O)[C@H](OC)C3)[C@H](C)[C@@H](O)CC1=O)[C@H](C)C[C@@H]2OC [FK506, tacrolimus] |  |
| 4 mg/L |  | 16 mg/L |  |  |  | 8 mg/L | 16 mg/L | OC(Cn1cncn1)(Cn1cncn1)c1ccc(F)cc1F [FLC, fluconazole] | less effective than eltrombopag |
